Assay results from publication PMC7607875, “Enhancing the antibacterial activity of antimicrobial peptide PMAP-37(F34-R) by cholesterol modification” (BMC Veterinary Research, 2020).
In brackets after ≈: the same amount, converted by molar mass. Marks after values point to notes of the source that are not given here. Residues, ends and D or L forms follow the SMILES beside them. No end group written: not given here. *: point of attachment. Cholesteryloxycarbonyl = CC(C)CCC[C@@H](C)[C@H]1CC[C@H]2[C@@H]3CC=C4C[C@@H](OC(=O)*)CC[C@]4(C)[C@H]3CC[C@]12C

Assays:
[1] = system: S. aureus ATCC25923; test: MIC assay, microdilution method; assay type: cell-based
Description: (§1) The MIC values of Chol-37(F34-R) were determined using the microdilution method of the Clinical and Laboratory Standards Institute. Antibacterial intensity was tested in MHB against S. aureus ATCC25923, L. monocytogenes CICC21634, S. typhimurium SL1344, and P. aeruginosa GIM1.551. The tested strains were cultured for 12 h at 37 °C. Then, the bacterial inoculum concentration was adjusted to 1 × 10^6 CFU/mL. Twofold serial dilutions covering different concentrations from 0.0039 to 256 μg/mL for each peptide were added to media containing cultures of the tested strains in 96-well plates, which were incubated at 37 °C for 18 h. The MIC values were determined by evaluating the OD600nm of the cultures.

[2] = system: P. aeruginosa GIM1.551; test: MIC assay, microdilution method; assay type: cell-based
Description: as §1

[3] = system: L. monocytogenes CICC21634; test: MIC assay, microdilution method; assay type: cell-based
Description: as §1

[4] = system: NIH 3 T3 cells; test: Cytotoxicity assay (MTT); conditions: 24 h, at a concentration of 1280 μg/mL, n = 5
Description: NIH 3 T3 cells were seeded in a 96-well with a density of 1× 10^4 cells per well and incubated in 37 °C for 24 h. Afterward, the cell medium was replaced by fresh DMEM containing various concentrations of peptides (2.5–1280 μg/mL). After 24 h incubation, 20 μL MTT agent (5 mg/mL) was added to each well and incubated for 4 h. Then, the supernatant of each well was replaced with 150 μL DMSO. The absorbance was measured by a microplate reader (FlexStation III) at 570 nm.

[5] = system: S. aureus ATCC25923; assay type: cell-based; conditions: ATCC25923, 12 h
Description: as §1
(§2) The effects of salt ion and serum on the antibacterial activities of Chol-37(F34-R) were investigated by MIC assay. S. aureus ATCC25923 and P. aeruginosa GIM1.551 were used as the tested strains. The MIC values were determined at recommended doses of NaCl (8.766 g/L), CaCl2 (0.039 g/L), and fetal bovine serum (20%).
(§3) The effects of salt ion and serum on antibacterial activities of PMAP-37(F34-R)-C were investigated by MIC assay. a, The control MIC values were determined in the absence of physiological salts and serum. b, c, and d, The final concentrations of NaCl, CaCl2, and serum were 8.766 g/L, 0.039 g/L, and 20% (v/v), respectively.

[6] = system: P. aeruginosa GIM1.551; assay type: cell-based; conditions: GIM1.551, 12 h
Description: as §1, §2, §3

[7] = system: mouse erythrocytes; test: Hemolytic assay; conditions: at 1280 μg/mL, 1 h, OD570nm, n = 5
Description: Mouse erythrocytes were diluted to a final suspension concentration of 8% (v/v). Then, 100 μL erythrocyte suspension was incubated with 100 μL peptides at different concentrations ranging from 2.5 to 1280 μg/mL. PBS and 0.2% Triton X-100 were used as negative and positive controls, respectively. After 1 h of incubation, the tested samples were centrifuged for 5 min at 1000 g. Lastly, the absorbance of the supernatant of tested samples was measured at 570 nm. The percentage of hemolytic was obtained using the following formula: Hemolysis rate = [OD570nm (peptides) − OD570nm (PBS)]/[OD570nm (Triton X − 100) − OD570nm (PBS)] × 100 % .

[8] = system: P. aeruginosa GIM1.551; test: P. aeruginosa GIM1.551-infected mouse knife injury model; assay type: in vivo; conditions: topical 10 μL of 1 μg/μL once per day for 7 days, day 7
Description: The P. aeruginosa strain GIM1.551 was used to build knife wound model of mouse as described elsewhere with minor modifications. A total of 30 mice were randomly divided into six groups. Briefly, the fur on the back of each mouse was removed by shaving. A 1.5 cm linear knife wound was made on the back of each mouse and infected by direct seeding with bacterial suspensions (1 × 10^8 CFU/mL, 50 μL). One day postinfection, the wounds were administered with PMAP-37 (10 μL, 1 μg/μL), PMAP-37(F34-R) (10 μL, 1 μg/μL), Chol-37(F34-R) (10 μL, 1 μg/μL), ampicillin sodium (10 μL, 1 μg/μL), or PBS (10 μL), and the treatment program was performed once per day for 7 days. The mice with no infection and treatment were used as blank control. The wounds of mice were wrapped in gauze bandages that were changed every day. Seven days after treatment, mice were euthanized with 120 mg/kg intraperitoneal (i.p.) sodium pentobarbital and their wound tissues were collected. The wound tissues were homogenized with a basic homogenizer. Following a 10-fold serial dilution in PBS, the homogenates were spread on TSB agar plates. The bacterial burden was determined after incubation at 37 °C for 18 h.

[9] = system: P. aeruginosa GIM1.551; test: P. aeruginosa GIM1.551-infected mouse abscess model; assay type: in vivo; conditions: P. aeruginosa GIM1.551 model; 10 μL of 1 μg/μL once per day for 3 days, day 3; n = 5
Text: (§4) The abscess model of mouse was built against S. aureus ATCC25923 or P. aeruginosa GIM1.551 as previously described with minor modifications. Twelve groups of 60 mice (5 mice per group) were randomly divided into PMAP-37, PMAP-37(F34-R), Chol-37(F34-R), ampicillin sodium (against S. aureus ATCC25923-infected mouse abscess model), benzylpenicillin potassium (against P. aeruginosa GIM1.551-infected mouse abscess model), PBS, and blank groups. The fur on the back of each mouse was shaved. Bacterial suspensions (1 × 10^8 CFU/mL, 50 μL) were injected into the right side of the dorsum underneath the thin skeletal muscle. After 1 h of inoculation, the infected areas were directly injected with PMAP-37, (10 μL, 1 μg/μL), PMAP-37(F34-R) (10 μL, 1 μg/μL), Chol-37(F34-R) (10 μL, 1 μg/μL), antibiotic (ampicillin sodium 10 μL, 1 μg/μL or benzylpenicillin potassium 10 μL, 1 μg/μL), or PBS (10 μL). The treatment program was conducted once per day for 3 days. Mice in the blank group were not challenged and treated. Three days after treatment, mice were euthanized with 120 mg/kg i.p. sodium pentobarbital, and their skin abscesses were harvested and homogenized as described above to assess the bacterial burden.

[10] = system: S. aureus ATCC25923; test: S. aureus ATCC25923-infected mouse abscess model; assay type: in vivo; conditions: 10 μL of 1 μg/μL once per day for 3 days, day 3, n = 5
Text: as §4

[11] = system: S. aureus ATCC25923; test: S. aureus ATCC25923-infected mouse peritonitis model; assay type: in vivo; conditions: i.p. 20 μL of 1 μg/μL once per day for 3 days
Description: The dissemination of S. aureus ATCC25923 to target organs was assessed in the peritonitis model. The assessment was performed on the basis of the method described previously with minor modifications. Six groups of 60 mice (10 mice per group) were randomly divided into PMAP-37, PMAP-37(F34-R), Chol-37(F34-R), ampicillin sodium, PBS, and blanks group. Bacterial suspension (1 × 10^8 CFU/mL, 100 μL) was intraperitoneally injected into mice. After 2 h inoculation, PMAP-37 (20 μL, 1 μg/μL), PMAP-37(F34-R) (20 μL, 1 μg/μL), Chol-37(F34-R) (20 μL, 1 μg/μL), ampicillin sodium (20 μL, 1 μg/μL), or PBS (20 μL) was intraperitoneally injected into the mice, and the treatment program was implemented once per day for 3 days. Mice in the blank group were not challenged and treated. […] Aliquots of diluted homogenized tissues were spread on LB agar, on which the bacterial burden was determined for analysis. […] Pathological changes were scored as follows: a score of 1 indicated no pathology, 2 indicated perivascular infiltrates, 3 indicated perivascular and interstitial infiltrates affecting < 20% of the section, 4 indicated perivascular and interstitial infiltrates affecting 20 to 50% of the section, and 5 indicated perivascular and interstitial infiltrates affecting > 50% of the section.

[12] = system: S. typhimurium SL1344; test: Inhibition zone assay (Kirby-Bauer disk diffusion); assay type: cell-based; design: key: +, peptide have antibacterial activity; conditions: disk with 10 μg, 37 °C, 18 h
Description: (§5) The antibacterial activity of Chol-37(F34-R) was detected using the Kirby-Bauer diffusion method. Four bacterial strains were used as experimental strains: L. monocytogenes CICC21634 cultured with BHI, P. aeruginosa GIM1.551 cultured with TSB, S. aureus ATCC25923, and S. typhimurium SL1344 cultured with LB medium. Briefly, the bacterial cells were cultured for 12 h at 37 °C in appropriate culture media, and the bacterial cell suspension was spread on the corresponding solid medium. Then, the disks containing 10 μg peptide or ceftiofur sodium were attached to the solid medium and incubated at 37 °C for 18 h. Lastly, the diameter of the inhibition zone was measured.

[13] = system: S. aureus ATCC25923; test: Inhibition zone assay (Kirby-Bauer disk diffusion); assay type: cell-based; design: key: +, peptide have antibacterial activity; conditions: disk with 10 μg, 37 °C, 18 h
Description: as §5

[14] = system: P. aeruginosa GIM1.551; test: Inhibition zone assay (Kirby-Bauer disk diffusion); assay type: cell-based; design: key: +, peptide have antibacterial activity; conditions: disk with 10 μg, 37 °C, 18 h
Description: as §5

[15] = system: L. monocytogenes CICC21634; test: Inhibition zone assay (Kirby-Bauer disk diffusion); assay type: cell-based; design: key: +, peptide have antibacterial activity; conditions: disk with 10 μg, 37 °C, 18 h
Description: as §5

[16] = system: S. typhimurium SL1344; assay type: cell-based; conditions: SL1344, 18 h
Description: as §1

Compound	MIC, CaCl2 [5]	MIC, Fetal bovine serum [5]	MIC, NaCl [5]	MIC, control [5]	MIC, CaCl2 [6]	MIC, Fetal bovine serum [6]	MIC, NaCl [6]	MIC, control [6]	MIC ([1]; ATCC25923, 18 h)	MIC ([2]; GIM1.551, 18 h)	MIC ([3]; CICC21634, 18 h)	MIC [16]	other results
CC[C@H](C)[C@H](NC(=O)[C@H](CCCNC(=N)N)NC(=O)[C@H](CCC(=O)O)NC(=O)[C@@H](NC(=O)[C@H](CCCCN)NC(=O)[C@H](CCC(=O)O)NC(=O)CNC(=O)[C@H](CC(C)C)NC(=O)[C@H](CCCNC(=N)N)NC(=O)[C@H](CCCNC(=N)N)NC(=O)CNC(=O)[C@H](CCCNC(=N)N)NC(=O)[C@H](CC(=O)O)NC(=O)[C@H](CO)NC(=O)[C@H](CC(C)C)NC(=O)[C@H](Cc1ccccc1)NC(=O)[C@H](CC(=O)O)NC(=O)[C@H](CCCNC(=N)N)NC(=O)[C@H](CC(C)C)NC(=O)[C@H](CCCNC(=N)N)NC(=O)[C@H](CO)NC(=O)[C@H](CC(C)C)NC(=O)[C@H](CC(C)C)NC(=O)CNC(=O)O[C@H]1CC[C@@]2(C)C(=CC[C@H]3[C@@H]4CC[C@H]([C@H](C)CCCC(C)C)[C@@]4(C)CC[C@@H]32)C1)[C@@H](C)CC)C(=O)NCC(=O)N[C@@H](CCC(N)=O)C(=O)N[C@@H](CCCCN)C(=O)N[C@H](C(=O)N[C@@H](CCCCN)C(=O)N[C@@H](CC(=O)O)C(=O)N[C@@H](CC(C)C)C(=O)N[C@@H](CO)C(=O)N[C@@H](CCC(=O)O)C(=O)N[C@@H](CCCNC(=N)N)C(=O)N[C@@H](Cc1ccccc1)C(=O)N[C@@H](CCC(N)=O)C(=O)N[C@@H](CO)C(=O)O)[C@@H](C)CC [Chol-37(F34-R)] (Cholesteryloxycarbonyl-GLLSRLRDFLSDRGRRLGEKIERIGQKIKDLSERFQS-OH)	0.0078 mg/L (≈ 0.00163 µM)	0.0078 mg/L (≈ 0.00163 µM)	0.0078 mg/L (≈ 0.00163 µM)	0.0078 mg/L (≈ 0.00163 µM)	0.5 mg/L (≈ 0.104 µM)	0.5 mg/L (≈ 0.104 µM)	0.5 mg/L (≈ 0.104 µM)	0.5 mg/L (≈ 0.104 µM)					MIC ([1]; S. aureus ATCC25923, MHB, 1 × 10^6 CFU/mL, 37 °C, 18 h, OD600nm, three independent experiments performed in triplicate): 0.0078** μg/mL; MIC ([2]; P. aeruginosa GIM1.551, MHB, 1 × 10^6 CFU/mL, 37 °C, 18 h, OD600nm, three independent experiments performed in triplicate): 0.5** μg/mL; MIC ([3]; L. monocytogenes CICC21634, MHB, 1 × 10^6 CFU/mL, 37 °C, 18 h, OD600nm, three independent experiments performed in triplicate): 0.5** μg/mL; cell survival rate [4]: over 80%; hemolysis rate [7]: less than 5%
CC1(C)S[C@@H]2[C@H](NC(=O)[C@H](N)c3ccccc3)C(=O)N2[C@H]1C(=O)O [ampicillin sodium]													wound size vs PBS group [8]: smaller wound sizes than that of the PBS group; bacterial load in the abscess [9]: reduced bacterial load in the abscess
CC1(C)S[C@@H]2[C@H](NC(=O)Cc3ccccc3)C(=O)N2[C@H]1C(=O)O [benzylpenicillin potassium]													bacterial load in the abscess [10]: reduced bacterial load in the abscess; tissue damage of liver and spleen (histopathology) [11]: eliminated most of the damaged tissues; bacterial load in the liver and spleen ([11]; n = 5): reduced the bacterial load
CO/N=C(\C(=O)N[C@@H]1C(=O)N2C(C(=O)[O-])=C(CSC(=O)c3ccco3)CS[C@H]12)c1csc(N)n1.[Na+] [ceftiofur sodium]													in vitro antibacterial activity (disk diffusion) [12]: +; in vitro antibacterial activity (disk diffusion) [13]: +; in vitro antibacterial activity (disk diffusion) [14]: +; in vitro antibacterial activity (disk diffusion) [15]: +
GLLSRLRDFLSDRGRRLGEKIERIGQKIKDLSEFFQS [PMAP-37]	0.0313 mg/L	0.0313 mg/L	0.0313 mg/L	0.0313 mg/L	2 mg/L	2 mg/L	2 mg/L	2 mg/L	0.0313 µg/mL	2 µg/mL	4 µg/mL	4 µg/mL	
GLLSRLRDFLSDRGRRLGEKIERIGQKIKDLSERFQS [PMAP-37(F34-R)]	0.0156 mg/L	0.0156 mg/L	0.0156 mg/L	0.0156 mg/L	1 mg/L	1 mg/L	1 mg/L	1 mg/L	0.0156* μg/mL	1* μg/mL	2* μg/mL	1** μg/mL	
